Measurements from patent US20070049564A1 (Wyeth, priority 2005, published 2007).
In brackets after ≈: the same amount, converted by molar mass. Read-outs that look alike come from different tables or passages of the source.

Columns and labels:
S. aureus GC 2216 = test: MIC, broth microdilution; settings: Staphylococcus aureus, GC2216, S. aureus GC 2216
c. albicans GC 3066 = test: MIC, broth microdilution
Staph. aureus Smith = test: In vivo activity (oral, iv; ED50) against Staph. aureus Smith in mice
Method: Representative examples of compounds of Formula I were tested for the oral efficacy using S. aureus Smith in mice.

E. coli GC 2271 = test: MIC, broth microdilution; settings: Escherichia coli, GC2271, E. coli GC 2271
S. aureus GC 1131 = test: MIC, broth microdilution; settings: Staphylococcus aureus, GC1131, S. aureus GC 1131
S. aureus GC 6335 = test: MIC, broth microdilution; settings: Staphylococcus aureus, GC6335, S. aureus GC 6335
E. coli GC 4559 = test: MIC, broth microdilution; settings: Escherichia coli, GC4559, E. coli GC 4559
S. aureus GC 1079 = test: MIC, broth microdilution; settings: Staphylococcus aureus, GC1079, S. aureus GC 1079
E. coli GC 1073 = test: MIC, broth microdilution; settings: Escherichia coli, GC1073, E. coli GC 1073
S. pneumoniae+ GC 4465 = test: MIC, broth microdilution; settings: Streptococcus pneumoniae, S. pneumoniae+ GC 4465
E. coli GC 2236 = test: MIC, broth microdilution; settings: Escherichia coli, GC2236, E. coli GC 2236
P. aeruginosa GC 2214 = test: MIC, broth microdilution; settings: Pseudomonas aeruginosa, GC2214, P. aeruginosa GC 2214
E. coli GC 2270 = test: MIC, broth microdilution; settings: Escherichia coli, GC2270, E. coli GC 2270
E. faecalis GC 2242 = test: MIC, broth microdilution; settings: Enterococcus faecalis, GC2242, E. faecalis GC 2242
E. faecium GC 4556 = test: MIC, broth microdilution; settings: Enterococcus faecium, GC4556, E. faecium GC 4556
E. coli GC 2234 = test: MIC, broth microdilution; settings: Escherichia coli, GC2234, E. coli GC 2234
E. coli GC 2233 = test: MIC, broth microdilution; settings: Escherichia coli, GC2233, E. coli GC 2233
S. epidermidis GC 4935 = test: MIC, broth microdilution; settings: Staphylococcus epidermidis, GC4935, S. epidermidis GC 4935
S. pyogenes GC 4563 = test: MIC, broth microdilution; settings: Streptococcus pyogenes, GC4563, S. pyogenes GC 4563
E. coli GC 2235 = test: MIC, broth microdilution; settings: Escherichia coli, GC2235, E. coli GC 2235
[1] = c. albicans GC 3066, Water pre-incubation
[2] = Staphylococcus aureus, in Mus musculus, po, read-out: ED50 Staph Smith SOD
[3] = iv, read-out: ED50 Staph Smith SIV

CCCCN(CC(=O)Nc1cc(N(C)C)c2c(c1O)C(=O)C1=C(O)[C@]3(O)C(=O)C(C(N)=O)=C(O)[C@@H](N(C)C)[C@@H]3C[C@@H]1C2)C(=O)OCOC(=O)c1ccc(F)cc1 [Example 4, ({[(2-{[(5aR,6aS,7S,10aS)-9-(aminocarbonyl)-4,7-bis(dimethylamino)-1,8,10a,11-tetrahydroxy-10,12-dioxo-5,5a,6,6a,7,10,10a,12-octahydrotetracen-2-yl]amino}-2-oxoethyl)(butyl)amino]carbonyl}oxy)methyl 4-fluorobenzoate]
MIC (S. aureus GC 2216; Mouse Serum pre-incubation): 0.5 µg/mL (≈ 0.64 µM) | MIC (S. aureus GC 2216; Water pre-incubation): 4 µg/mL (≈ 5.12 µM) | MIC (c. albicans GC 3066; Candida albicans, GC3066): > 64 µg/mL | MIC (c. albicans GC 3066; [1]): >64 UG/ML | ED50 (Staph. aureus Smith; [2]): 11.6 mg/kg | ED50 (Staph. aureus Smith; [3]): 0.39 mg/kg | MIC (E. coli GC 2271; Mouse Serum pre-incubation): 0.5 µg/mL (≈ 0.64 µM) | MIC (E. coli GC 2271; Water pre-incubation): 64 µg/mL (≈ 81.9 µM) | MIC (S. aureus GC 1131; Mouse Serum pre-incubation): 1 µg/mL (≈ 1.28 µM) | MIC (S. aureus GC 1131; Water pre-incubation): 4 µg/mL (≈ 5.12 µM) | MIC (S. aureus GC 6335; Mouse Serum pre-incubation): 1 µg/mL (≈ 1.28 µM) | MIC (S. aureus GC 6335; Water pre-incubation): 4 µg/mL (≈ 5.12 µM) | MIC (E. coli GC 4559; Mouse Serum pre-incubation): 2 µg/mL (≈ 2.56 µM) | MIC (E. coli GC 4559; Water pre-incubation): > 64 µg/mL | MIC (S. aureus GC 1079; Mouse Serum pre-incubation): 1 µg/mL (≈ 1.28 µM) | MIC (S. aureus GC 1079; Water pre-incubation): 4 µg/mL (≈ 5.12 µM) | MIC (E. coli GC 1073; Mouse Serum pre-incubation): 1 µg/mL (≈ 1.28 µM) | MIC (E. coli GC 1073; Water pre-incubation): > 64 µg/mL | MIC (S. pneumoniae+ GC 4465; Mouse Serum pre-incubation): 2 µg/mL (≈ 2.56 µM) | MIC (S. pneumoniae+ GC 4465; Water pre-incubation): 4 µg/mL (≈ 5.12 µM) | MIC (E. coli GC 2236; Mouse Serum pre-incubation): 1 µg/mL (≈ 1.28 µM) | MIC (E. coli GC 2236; Water pre-incubation): 64 µg/mL (≈ 81.9 µM) | MIC (P. aeruginosa GC 2214; Mouse Serum pre-incubation): 32 µg/mL (≈ 40.9 µM) | MIC (P. aeruginosa GC 2214; Water pre-incubation): > 64 µg/mL | MIC (E. coli GC 2270; Mouse Serum pre-incubation): 1 µg/mL (≈ 1.28 µM) | MIC (E. coli GC 2270; Water pre-incubation): 64 µg/mL (≈ 81.9 µM) | MIC (E. faecalis GC 2242; Mouse Serum pre-incubation): 1 µg/mL (≈ 1.28 µM) | MIC (E. faecalis GC 2242; Water pre-incubation): 4 µg/mL (≈ 5.12 µM) | MIC (E. faecium GC 4556; Mouse Serum pre-incubation): 1 µg/mL (≈ 1.28 µM) | MIC (E. faecium GC 4556; Water pre-incubation): 4 µg/mL (≈ 5.12 µM) | MIC (E. coli GC 2234; Mouse Serum pre-incubation): 1 µg/mL (≈ 1.28 µM) | MIC (E. coli GC 2234; Water pre-incubation): 64 µg/mL (≈ 81.9 µM) | MIC (E. coli GC 2233; Mouse Serum pre-incubation): 1 µg/mL (≈ 1.28 µM) | MIC (E. coli GC 2233; Water pre-incubation): 64 µg/mL (≈ 81.9 µM) | MIC (S. epidermidis GC 4935; Mouse Serum pre-incubation): 2 µg/mL (≈ 2.56 µM) | MIC (S. epidermidis GC 4935; Water pre-incubation): 4 µg/mL (≈ 5.12 µM) | MIC (S. pyogenes GC 4563; Mouse Serum pre-incubation): 0.12 µg/mL (≈ 0.153 µM) | MIC (S. pyogenes GC 4563; Water pre-incubation): 0.25 µg/mL (≈ 0.32 µM) | MIC (E. coli GC 2235; Mouse Serum pre-incubation): 1 µg/mL (≈ 1.28 µM) | MIC (E. coli GC 2235; Water pre-incubation): 64 µg/mL (≈ 81.9 µM)

CCCN(CC(=O)Nc1cc(N(C)C)c2c(c1O)C(=O)C1=C(O)[C@]3(O)C(=O)C(C(N)=O)=C(O)[C@@H](N(C)C)[C@@H]3C[C@@H]1C2)C(=O)OCOC(=O)c1ccc(C)cc1 [Example 5, ({[(2-{[(5aR,6aS,7S,10aS)-9-(aminocarbonyl)-4,7-bis(dimethylamino)-1,8,10a,11-tetrahydroxy-10,12-dioxo-5,5a,6,6a,7,10,10a,12-octahydrotetracen-2-yl]amino}-2-oxoethyl)(propyl)amino]carbonyl}oxy)methyl 4-methylbenzoate]
MIC (S. aureus GC 2216; Mouse Serum pre-incubation): 0.5 µg/mL (≈ 0.655 µM) | MIC (S. aureus GC 2216; Water pre-incubation): 2 µg/mL (≈ 2.62 µM) | MIC (c. albicans GC 3066; Candida albicans, GC3066): > 64 µg/mL | MIC (c. albicans GC 3066; [1]): >64 UG/ML | ED50 (Staph. aureus Smith; Staphylococcus aureus, in Mus musculus, iv, read-out: ED50 SIV (Staph aureus Smith)): 0.5 mg/kg | ED50 (Staph. aureus Smith; Staphylococcus aureus, in Mus musculus, po, read-out: ED50 SOD (Staph aureus Smith)): 8.51 mg/kg | ED50 (Staph. aureus Smith; [2]): 8.51 mg/kg | ED50 (Staph. aureus Smith; [3]): 0.5 mg/kg | MIC (E. coli GC 2271; Mouse Serum pre-incubation): 1 µg/mL (≈ 1.31 µM) | MIC (E. coli GC 2271; Water pre-incubation): 16 µg/mL (≈ 20.9 µM) | MIC (S. aureus GC 1131; Mouse Serum pre-incubation): 0.5 µg/mL (≈ 0.655 µM) | MIC (S. aureus GC 1131; Water pre-incubation): 1 µg/mL (≈ 1.31 µM) | MIC (S. aureus GC 6335; Mouse Serum pre-incubation): 0.5 µg/mL (≈ 0.655 µM) | MIC (S. aureus GC 6335; Water pre-incubation): 1 µg/mL (≈ 1.31 µM) | MIC (E. coli GC 4559; Mouse Serum pre-incubation): 2 µg/mL (≈ 2.62 µM) | MIC (E. coli GC 4559; Water pre-incubation): 32 µg/mL (≈ 41.9 µM) | MIC (S. aureus GC 1079; Mouse Serum pre-incubation): 2 µg/mL (≈ 2.62 µM) | MIC (S. aureus GC 1079; Water pre-incubation): 2 µg/mL (≈ 2.62 µM) | MIC (E. coli GC 1073; Mouse Serum pre-incubation): 2 µg/mL (≈ 2.62 µM) | MIC (E. coli GC 1073; Water pre-incubation): 32 µg/mL (≈ 41.9 µM) | MIC (S. pneumoniae+ GC 4465; Mouse Serum pre-incubation): 2 µg/mL (≈ 2.62 µM) | MIC (S. pneumoniae+ GC 4465; Water pre-incubation): 4 µg/mL (≈ 5.24 µM) | MIC (E. coli GC 2236; Mouse Serum pre-incubation): 2 µg/mL (≈ 2.62 µM) | MIC (E. coli GC 2236; Water pre-incubation): 16 µg/mL (≈ 20.9 µM) | MIC (P. aeruginosa GC 2214; Mouse Serum pre-incubation): 32 µg/mL (≈ 41.9 µM) | MIC (P. aeruginosa GC 2214; Water pre-incubation): > 64 µg/mL | MIC (E. coli GC 2270; Mouse Serum pre-incubation): 1 µg/mL (≈ 1.31 µM) | MIC (E. coli GC 2270; Water pre-incubation): 16 µg/mL (≈ 20.9 µM) | MIC (E. faecalis GC 2242; Mouse Serum pre-incubation): 1 µg/mL (≈ 1.31 µM) | MIC (E. faecalis GC 2242; Water pre-incubation): 2 µg/mL (≈ 2.62 µM) | MIC (E. faecium GC 4556; Mouse Serum pre-incubation): 1 µg/mL (≈ 1.31 µM) | MIC (E. faecium GC 4556; Water pre-incubation): 2 µg/mL (≈ 2.62 µM) | MIC (E. coli GC 2234; Mouse Serum pre-incubation): 1 µg/mL (≈ 1.31 µM) | MIC (E. coli GC 2234; Water pre-incubation): 32 µg/mL (≈ 41.9 µM) | MIC (E. coli GC 2233; Mouse Serum pre-incubation): 2 µg/mL (≈ 2.62 µM) | MIC (E. coli GC 2233; Water pre-incubation): 32 µg/mL (≈ 41.9 µM) | MIC (S. epidermidis GC 4935; Mouse Serum pre-incubation): 1 µg/mL (≈ 1.31 µM) | MIC (S. epidermidis GC 4935; Water pre-incubation): 2 µg/mL (≈ 2.62 µM) | MIC (S. pyogenes GC 4563; Mouse Serum pre-incubation): 0.12 µg/mL (≈ 0.157 µM) | MIC (S. pyogenes GC 4563; Water pre-incubation): 0.25 µg/mL (≈ 0.327 µM) | MIC (E. coli GC 2235; Mouse Serum pre-incubation): 1 µg/mL (≈ 1.31 µM) | MIC (E. coli GC 2235; Water pre-incubation): 16 µg/mL (≈ 20.9 µM)
